“And” between values parts separate entries of the source, which are not always exact repeats. Equal entries are not always repeated. “Also recorded” adds a separate entry of the source.
Key:
Type in all cases: in vivo, human
[1] = test system: patients with chronic thromboembolism and displaying secondary PHT; assay: Low V/Q perfusion by MIGET in patients with chronic thromboembolism; conditions: for effect on low-V/Q perfusion / ventilation/perfusion distribution (words): 7 patients with CTEPH; for low V/Q perfusion (MIGET), level reached: 7 patients, control 3.25%, PGI i.v. 6 ng/kg/min, NO 20 ppm inhaled, sildenafil 50 mg oral
Procedure: FIG. 3: Result of determination of the low V/Q perfusion measured by the inert gas exchange method (MIGET) [Wagner et al. J Appl Physiol. 1974;36:588-99] from 7 patients with chronic thromboembolism and displaying secondary PHT (pulmonary hypertension). Compared with the control group (3.25%), the shunting was increased with PGI (i.v.) [6 ng/kg bodyweight/min] to 19%, with NO (inhaled) [20 ppm] to 5.3% and with sildenafil (oral) [50 mg] to 5.3%.
(§1) 7 patients with CTEPH underwent a Swan-Ganz catheter investigation with measurement of the ventilation/perfusion (V/Q) distribution (using the multiple inert gas elimination technique (MIGET)). After determination of the baseline parameters (haemodynamics and gas exchange), all the patients initially inhaled 20 ppm NO, followed by a second baseline period (10-15 min), and then PGI was infused (6 ng/kg bodyweight/min), again followed by a second baseline period (10-15 min) and then an oral dose of 50 mg of sildenafil was given (120-150 min follow-up). 3 of the 7 patients were controlled by continuous nasal oxygen therapy in order to reach an arterial oxygenation of >88%. The following parameters were measured under baseline conditions: mean pulmonary arterial pressure (mPAP) 52.1 +/−3.3 mmHg, cardiac index (CI) 2.2+/−0.1 |* min^−1*m^−2, pulmonary vascular resistance index (PVRI) 1703.8+/−129.5 dyn*s*cm^−6*m^2, arterial pO2 72.5+/−3.3 mmHg and mixed venous oxygen saturation (SvO2) of 63.4+/−2.2%.

[2] = test system: patients with ILD displaying secondary PHT; assay: Arterial oxygen partial pressure (delta PaO2) in patients with ILD; conditions: 7 patients with ILD; for arterial oxygen partial pressure (delta PaO2) / O2 saturation, increase: NO 20 ppm inhaled, sildenafil 50 mg oral
Text: FIG. 6: Result of determination of the arterial oxygen partial pressure (PaO2) on 7 patients with ILD displaying secondary PHT (pulmonary hypertension) measured as delta PaO2.
as §1, with “ILD” for “CTEPH”, “5” for “3”, “39.6+/−2.8 mmHg and” for “52.1 +/−3.3 mmHg, cardiac index (CI) 2.2+/−0.1 |* min^−1*m^−2,”, “1255+/−215 dyn*s*cm−5*m^2.” for “1703.8+/−129.5 dyn*s*cm^−6*m^2, arterial pO2 72.5+/−3.3 mmHg and mixed venous oxygen saturation (SvO2) of 63.4+/−2.2%.”

[3] = test system: patients with chronic thromboembolism and displaying secondary PHT; assay: Arterial oxygen partial pressure in patients with chronic thromboembolism; conditions: 7 patients; for effect on arterial oxygen partial pressure: FIG. 4; for arterial oxygen partial pressure (PaO2), improvement: NO 20 ppm inhaled, sildenafil 50 mg oral
Procedure: (§2) FIG. 4: Result of measurement of the arterial oxygen partial pressure (PaO2) on 7 patients with chronic thromboembolism and displaying secondary PHT (pulmonary hypertension). The arterial oxygen partial pressure was improved by NO (inhaled) [20 ppm] and sildenafil (oral) [50 mg] by respectively 1.8% and 7.6%, whereas the oxygen saturation fell by 13% after administration of PGI (intravenous). In the same experiment, the vascular resistance was measured and determined as delta PVR by a right cardiac catheterization. The vascular resistance was reduced respectively by 25%, 19% and 21% after administration of PGI (intravenous) [6 ng/kg bodyweight/min], NO (inhaled) [20 ppm] and sildenafil (oral) [50 mg].
as §1

[4] = test system: patients with ILD displaying secondary PHT; assay: Pulmonary vascular resistance in patients with ILD; conditions: 7 patients with ILD
Procedure: as §1, with “ILD” for “CTEPH”, “5” for “3”, “39.6+/−2.8 mmHg and” for “52.1 +/−3.3 mmHg, cardiac index (CI) 2.2+/−0.1 |* min^−1*m^−2,”, “1255+/−215 dyn*s*cm−5*m^2.” for “1703.8+/−129.5 dyn*s*cm^−6*m^2, arterial pO2 72.5+/−3.3 mmHg and mixed venous oxygen saturation (SvO2) of 63.4+/−2.2%.”
By contrast, PGI (intravenous) increased the lung areas from 7% to almost 20% and thus caused a deterioration in matching (FIG. 5). Corresponding to the matching, PGI reduced the O2 saturation by 12%, whereas NO brought about an improvement of 5% and sildenafil one of 15% (FIG. 6).

[5] = test system: patients with chronic thromboembolism and displaying secondary PHT; assay: Pulmonary vascular resistance (delta PVR, right cardiac catheterization) in patients with chronic thromboembolism; conditions: for effect on pulmonary vascular resistance: 7 patients with CTEPH; for vascular resistance (PVR), reduction: 7 patients, PGI i.v. 6 ng/kg/min, NO 20 ppm inhaled, sildenafil 50 mg oral
Procedure: as §2, §1

[6] = test system: patients with ILD (interstitial lung disease) displaying secondary PHT; assay: Shunting by MIGET in patients with ILD; conditions: 7 patients with ILD; for shunting / shunt perfusion (MIGET), level reached: baseline 7.2%, PGI i.v., NO 20 ppm inhaled, sildenafil 50 mg oral
Procedure: FIG. 5: Result of determination of the shunting on 7 patients with ILD (interstitial lung disease) displaying secondary PHT. The measurement took place by the inert gas exchange method (MIGET) [Wagner et al. J Appl Physiol. 1974;36:588-99]. The shunting was reduced to 5% and 4.8%, respectively, by NO (inhaled) [20 ppm] and sildenafil (oral) [50 mg]. The shunting was increased to 18% after administration of PGI (prostacyclin, intravenous) […]].
as §1, with “ILD” for “CTEPH”, “5” for “3”, “39.6+/−2.8 mmHg and” for “52.1 +/−3.3 mmHg, cardiac index (CI) 2.2+/−0.1 |* min^−1*m^−2,”, “1255+/−215 dyn*s*cm−5*m^2.” for “1703.8+/−129.5 dyn*s*cm^−6*m^2, arterial pO2 72.5+/−3.3 mmHg and mixed venous oxygen saturation (SvO2) of 63.4+/−2.2%.”

Row | SMILES | effect on low-V/Q perfusion / ventilation/perfusion distribution (words) [1] | low V/Q perfusion (MIGET), level reached [1] | arterial oxygen partial pressure (delta PaO2) / O2 saturation, increase [2] | effect on arterial oxygen partial pressure [3] | arterial oxygen partial pressure (PaO2), improvement [3] | effect on pulmonary vascular resistance [4] | pulmonary vascular resistance (PVR), reduction [4] | effect on pulmonary vascular resistance [5] | vascular resistance (PVR), reduction [5] | effect on shunting / ventilation/perfusion distribution [6] | shunting / shunt perfusion (MIGET), level reached [6] | arterial oxygen partial pressure / oxygen saturation, decrease ([2]; PGI intravenous 6 ng/kg/min) | arterial oxygen partial pressure / oxygen saturation, decrease ([3]; PGI intravenous 6 ng/kg/min) | effect on low-V/Q perfusion / ventilation/perfusion distribution (words) ([1]; listed as Sildenafil)
1 | [N]=O [NO, nitric oxide] | virtually unchanged; also recorded: increased slightly | 5.3% | 5% and 4.8% | not changed | 1.8% | marked reduction | about 25% | marked reduction | 19% | virtually unchanged; also recorded: no effect | 5% |  |  | 
2 | CCCCC[C@H](O)/C=C/[C@@H]1[C@H]2C/C(=C/CCCC(=O)O)O[C@H]2C[C@H]1O [PGI, prostacyclin] | greatly increased | 19% |  |  |  | marked reduction | about 25% | marked reduction | 25% |  | 18% and ~20% | 12.5% and 12% | 13% | 
3 | CCCc1nn(C)c2c(=O)[nH]c(-c3cc(S(=O)(=O)N4CCN(C)CC4)ccc3OCC)nc12 [sildenafil, 5-[2-ethoxy-5-(4-methyl-1-piperazinyl-sulphonyl)phenyl]-1-methyl-3-n-propyl-1,6-dihydro-7H-pyrazolo[4,3-d]pyrimidin-7-one] | virtually unchanged | 5.3% | 15% and 13% | increased | 7.6% | marked reduction | about 25% | marked reduction | 21% | virtually unchanged; also recorded: no effect | 4.8% |  |  | same effect as NO (inhaled)

From patent US20050107394A1, “Novel use of selective pde5 inhibitors” (priority 2001, published 2005)
